Patent US12435080B2, “sGC stimulators” (Tisento Therapeutics Inc., priority 2016, dated 2025)
Where a chain is given by its changes, count along the chain named. Where two headings read alike, the source gives them in different places.

Key:
sGC enzyme = target: T1, sGC enzyme (Homo sapiens, UniProt Q02108+Q02153); experiment: cGMP GloSensor cell-based assay, 384-well format; settings: HEK293 cells expressing GloSensor 40F cGMP, 10 μM DETA-NONOate, normalized to 30 μM Compound Y
T1 construct: incorporated into these cells detect cGMP formed by the compounds stimulating the sGC enzyme; host or cells: HEK293 cells stably expressing GloSensor 40F cGMP biosensor
T1 sequence (Q02153 1-619): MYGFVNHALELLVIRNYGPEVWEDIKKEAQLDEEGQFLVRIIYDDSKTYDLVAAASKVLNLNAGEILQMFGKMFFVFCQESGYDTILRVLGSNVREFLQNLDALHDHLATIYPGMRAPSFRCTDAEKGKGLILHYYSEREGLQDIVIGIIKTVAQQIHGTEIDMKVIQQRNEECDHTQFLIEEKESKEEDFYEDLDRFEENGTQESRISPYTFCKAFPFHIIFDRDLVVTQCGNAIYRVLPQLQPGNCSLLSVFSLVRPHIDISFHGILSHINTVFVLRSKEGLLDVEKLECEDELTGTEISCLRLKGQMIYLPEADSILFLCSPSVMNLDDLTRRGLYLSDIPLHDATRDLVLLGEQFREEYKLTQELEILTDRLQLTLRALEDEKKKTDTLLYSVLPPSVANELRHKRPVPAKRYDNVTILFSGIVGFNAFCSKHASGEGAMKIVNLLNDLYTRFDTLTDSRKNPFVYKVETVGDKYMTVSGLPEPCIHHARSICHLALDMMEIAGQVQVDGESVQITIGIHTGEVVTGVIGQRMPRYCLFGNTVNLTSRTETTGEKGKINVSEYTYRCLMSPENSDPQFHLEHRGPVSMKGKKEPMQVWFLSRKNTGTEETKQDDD
T1 sequence (Q02108 1-690): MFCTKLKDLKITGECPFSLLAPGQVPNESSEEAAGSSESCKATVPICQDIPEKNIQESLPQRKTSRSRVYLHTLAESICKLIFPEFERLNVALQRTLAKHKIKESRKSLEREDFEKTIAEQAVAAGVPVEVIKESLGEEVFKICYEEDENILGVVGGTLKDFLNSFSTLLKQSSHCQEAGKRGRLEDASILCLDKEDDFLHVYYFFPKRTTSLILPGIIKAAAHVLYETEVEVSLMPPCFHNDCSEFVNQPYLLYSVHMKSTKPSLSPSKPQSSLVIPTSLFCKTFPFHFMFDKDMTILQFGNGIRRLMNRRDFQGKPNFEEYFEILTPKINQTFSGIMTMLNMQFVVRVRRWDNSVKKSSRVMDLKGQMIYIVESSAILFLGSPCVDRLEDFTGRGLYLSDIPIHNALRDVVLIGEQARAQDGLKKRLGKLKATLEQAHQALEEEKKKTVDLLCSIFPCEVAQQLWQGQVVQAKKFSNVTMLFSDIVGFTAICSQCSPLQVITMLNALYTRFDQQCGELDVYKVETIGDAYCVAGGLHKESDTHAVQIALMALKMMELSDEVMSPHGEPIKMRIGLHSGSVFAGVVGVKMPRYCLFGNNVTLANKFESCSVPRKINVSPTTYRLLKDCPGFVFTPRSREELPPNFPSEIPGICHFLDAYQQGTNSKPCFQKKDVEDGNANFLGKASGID
Procedure, shortened: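 HEK293 cells expressing GloSensor 40F cGMP luciferase biosensor, preloaded with 2 mM GloSensor substrate for 90 min at 25 °C. Endpoint luminescence read after 55 min compound incubation at room temperature.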

sGC = target: T2, sGC (Rattus norvegicus, UniProt P20595); experiment: cGMP neuronal cell-based assay; settings: rat primary hippocampal neurons, 30 μM DETA-NO, cGMP by LC-MS/MS, normalized to 10 μM Compound Y
T2 construct: Rat primary neurons were isolated from fetuses of 18-day pregnant Sprague-Dawley females; endogenous in cells; host or cells: Primary rat hippocampal neurons (E18 Sprague-Dawley fetuses)
T2 sequence (P20595 1-619): T1 sequence (Q02153 1-619) with N171S, E205D, N247K, T299A, K615N, D618E, D619N
Description: Rat primary neurons were isolated from fetuses of 18-day pregnant Sprague-Dawley females. The fetuses were collected in Hanks' balanced salt solution (HBSS) and brains were rapidly removed. The cerebral hippocampi were isolated and mechanically fragmented. Further tissue digestion was performed with 0.25% (wt/vol) trypsin solution in HBSS without Ca2+ and Mg2+ for 15 min at 37° C. After trypsination, cells were washed and resuspended in neurobasal medium supplemented with 0.5 mM L-glutamine, 12.5 uM glutamic acid, 2% B-27 and 100U/mL penicillin, and 100 μg/mL streptomycin. Cells were plated at a density of 4×10^4 cells/well in a poly-D-lysine coated 384-well flat clear-bottom plate (Corning Cat No 354662). Cells were incubated 6-7 days at 37° C. in a humidified chamber with 5% CO2. Media was removed and cells were washed 1× with HBSS containing Ca2+ and Mg2+, and replaced with 40 uL HBSS containing 0.5 mM IBMX, and incubated for 15 minutes at 37° C. 10 uL of a 5× stock of test compounds with diethylenetriamine NONOate (DETA-NO) was added. Final concentration of DETA-NO was 30 μM. Cells were incubated for 20 min at 37° C. Medium was removed, 50 uL of ice-cold 10% acetic acid was added, and incubated for 60 minutes at 4° C. Following centrifugation at 4° C. for 5 minutes at 1000×g to pellet cell debris, the supernatant was aspirated to a clean plate and the samples were analyzed for cGMP content. cGMP concentrations were determined from each sample using LC-MS/MS.
Data were normalized to a high control using the following equation: 100*(Sample−Low Control)/(High Control−Low Control), where the low control is the average of 15 samples treated with 1% DMSO, and the high control is the average of 15 samples treated with 10 μM of the known sGC stimulator Compound Y (depicted in Example 2). Data were fit using a 4-parameter fit (log(agonist) vs. response—variable slope) using GraphPad Prism Software v.5. n=2 for all compounds. The Absolute EC50 was interpolated from the curve fit and is defined as the concentration at which a given compound elicits 50% of the high control response after data normalization. Compounds failing to elicit a minimum response of 50% are reported as >30 μM. For compounds run in duplicate or n higher than 2, the result herein given is the geometric mean of the several results obtained.

[1] = compounds in Table IA, read-out: Glo-sensor AbsEC50
[2] = compounds in Table IA, read-out: sGC-neuron Abs EC50
[3] = compounds in Table IB, read-out: Glo-sensor Abs EC50
[4] = compounds in Table IB, read-out: sGC-Neuron Abs EC50

EC50 (sGC enzyme; [1])	EC50 (sGC; [2])	EC50 (sGC enzyme; [3])	EC50 (sGC; [4])	Compound
< 100 nM	≤ 100 nM			Fc1cnc2c(c1)c(-c1nc(C(F)(F)F)n[nH]1)nn2Cc1ccccc1F [Compound I-8, 5-Fluoro-1-(2-fluorobenzyl)-3-(3-(trifluoromethyl)-1H-1,2,4-triazol-5-yl)-1H-pyrazolo[3,4-b]pyridine]
< 100 nM	≤ 100 nM			Fc1ccc(F)c(Cc2nn(-c3nc(C(F)(F)F)n[nH]3)c3cccnc23)c1 [Compound I-130, 3-(2,5-Difluorobenzyl)-1-(3-(trifluoromethyl)-1H-1,2,4-triazol-5-yl)-1H-pyrazolo[4,3-b]pyridine]
< 100 nM	≤ 100 nM			Fc1ccc(F)c(Cc2nn(-c3nc(C(F)F)n[nH]3)c3cccnc23)c1 [Compound I-131, 3-(2,5-Difluorobenzyl)-1-(3-(difluoromethyl)-1H-1,2,4-triazol-5-yl)-1H-pyrazolo[4,3-b]pyridine]
100 to 1000 nM	≤ 100 nM			Fc1cccc(Cc2nn(-c3nc(C(F)F)n[nH]3)c3cccnc23)c1F [Compound I-127, 3-(2,3-Difluorobenzyl)-1-(3-(difluoromethyl)-1H-1,2,4-triazol-5-yl)-1H-pyrazolo[4,3-b]pyridine]
		< 100 nM	≤ 100 nM	FC(F)(F)c1n[nH]c(-c2nc(Cc3cncnc3)c3cc(Cl)ccn23)n1 [Compound I-6, 7-Chloro-1-(pyrimidin-5-ylmethyl)-3-(3-(trifluoromethyl)-1H-1,2,4-triazol-5-yl)imidazo[1,5-a]pyridine]
		100 to 1000 nM	100 to 1000 nM	FC(F)(F)c1n[nH]c(-c2nc(CCC(F)(F)C(F)(F)F)c3ccccn23)n1 [Compound I-9]
